Legend:
[1] = assay type: in vivo, human
CYP2C19 mRNA = test: Induction of CYP mRNA expression in HepaRG cells; assay type: cell-based, human; settings: 72 hours, 300 µM 4‐MAA, 10 µM rifampicin; for CYP2C19 mRNA induction in 5‐F cells: 5‐F control HepaRG cells, 1 µM CITCO
CYP2B6 mRNA = test: Induction of CYP mRNA expression in HepaRG cells; assay type: cell-based, human; settings: 72 hours, 300 µM 4‐MAA, 10 µM rifampicin; for CYP2B6 mRNA induction in 5‐F cells: 5‐F control HepaRG cells, 1 µM CITCO
CYP2C9 mRNA = test: Induction of CYP mRNA expression in HepaRG cells; assay type: cell-based, human; settings: 5‐F control HepaRG cells, 72 hours; 300 µM 4‐MAA, 1 µM CITCO, 10 µM rifampicin
CYP1A2 mRNA = test: Induction of CYP mRNA expression in HepaRG cells; assay type: cell-based, human; settings: 72 hours
CYP1A2 [2] = assay type: in vivo, human; settings: male, human, plasma, oral
CYP2C19 = test: Clinical phenotyping cocktail study: effect of metamizole on CYP2C19; assay type: in vivo, human; settings: 3 g of metamizole per day for 1 week
CYP2C9 = test: Clinical phenotyping cocktail study: effect of metamizole on CYP2C9; assay type: in vivo, human; settings: 3 g of metamizole per day for 1 week
CYP1A2 [3] = target: T1, CYP1A2 (Homo sapiens, UniProt P05177); test: Clinical phenotyping cocktail study: effect of metamizole on CYP1A2; assay type: in vivo
T1 sequence (P05177 1-516): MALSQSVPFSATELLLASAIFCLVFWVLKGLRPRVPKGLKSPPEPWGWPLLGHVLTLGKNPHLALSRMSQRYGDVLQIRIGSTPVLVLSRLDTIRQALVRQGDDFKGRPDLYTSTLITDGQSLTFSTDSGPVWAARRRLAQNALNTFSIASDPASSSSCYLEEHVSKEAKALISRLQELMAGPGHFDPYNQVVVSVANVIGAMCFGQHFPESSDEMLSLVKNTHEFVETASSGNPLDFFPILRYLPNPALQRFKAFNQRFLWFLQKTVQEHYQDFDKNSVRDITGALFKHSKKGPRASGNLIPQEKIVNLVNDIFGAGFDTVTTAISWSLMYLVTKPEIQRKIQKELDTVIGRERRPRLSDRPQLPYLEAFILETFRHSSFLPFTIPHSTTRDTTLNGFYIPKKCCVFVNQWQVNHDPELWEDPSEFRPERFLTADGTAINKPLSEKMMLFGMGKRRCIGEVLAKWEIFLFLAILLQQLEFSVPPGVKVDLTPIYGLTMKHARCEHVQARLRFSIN

[4] = retrospective study, patients treated with metamizole; cited from earlier work
CYP3A4 = test: Clinical phenotyping cocktail study: effect of metamizole on CYP3A4; assay type: in vivo, human; settings: 3 g of metamizole per day for 1 week
CYP2B6 [5] = settings: healthy volunteers, 1.5 g metamizole per day for 4 days; cited from earlier work
CYP2D6 = test: Clinical phenotyping cocktail study: effect of metamizole on CYP2D6; assay type: in vivo, human
CYP2B6 [6] = test: Clinical phenotyping cocktail study: effect of metamizole on CYP2B6; assay type: in vivo, human; settings: 3 g of metamizole per day for 1 week
[7] = patients after organ transplantation; cited from earlier work
CYP2D6 mRNA = test: Induction of CYP mRNA expression in HepaRG cells; assay type: cell-based, human; settings: differentiated HepaRG cells, 72 hours; 300 µM 4‐MAA; 2 mM metformin
[8] = clinical study, 3 g of metamizole per day for 1 week
[9] = differentiated HepaRG cells, vs DMSO control

Compound CC(C(=O)O)c1ccc(-c2ccc(O)cc2)c(F)c1 (centres unmarked) [4′‐hydroxyflurbiprofen] has an AUC(0-inf) ([1]; male, human, plasma, oral) of 726 ng·h/mL.
In the case of Clc1ccc(-c2nc3sccn3c2C=NOCc2ccc(Cl)c(Cl)c2)cc1 [CITCO, 6‐(4‐chlorophenyl)imidazo[2,1‐b][1,3]thiazole‐5‐carbaldehyde O‐(3,4‐dichlorobenzyl)oxime], the “CYP2C19 mRNA induction in 5‐F cells” value (CYP2C19 mRNA) is reported as “induced”, the “CYP3A4 mRNA induction in 5‐F cells” value (CYP3A4 mRNA) is reported as “not significant” and the “CYP2B6 mRNA induction in 5‐F cells” value (CYP2B6 mRNA) is reported as “induced”. The “CYP2C9 mRNA induction in 5‐F cells” value (CYP2C9 mRNA) was “not significant”, the “CYP1A2 mRNA induction in 5‐F cells” value (CYP1A2 mRNA; 5‐F control HepaRG cells, 1 µM CITCO) was “induced” and the “CYP1A2 mRNA induction in HepaRG cells lacking CAR” value (CYP1A2 mRNA; CAR‐knockout HepaRG cells, 1 µM CITCO) was “still induced”.
Cn1c(=O)c2c(ncn2C)n(C)c1=O [Caffeine, caffeine] gave an AUC(0-inf) ([1]; male, human, plasma, oral) of 7210 ng·h/mL.
For O=C1Nc2ccc(Cl)cc2[C@@](C#CC2CC2)(C(F)(F)F)O1 [Efavirenz, efavirenz], the “Basal metabolic ratio in CYP2B6 NM” value ([1]; basal state, CYP2B6 *1/*1 carriers (normal metabolizers, four subjects)) was 96.3, the “Basal metabolic ratio in CYP2B6 IM” value ([1]; basal state, CYP2B6 *1/*6 carriers (intermediate metabolizers, eight subjects)) was 87.5 and the AUC(0-inf) ([1]; male, human, plasma, oral) was 3980 ng·h/mL.
With CC(C(=O)O)c1ccc(-c2ccccc2)c(F)c1 (centres unmarked) [Flurbiprofen, flurbiprofen] the AUC(0-inf) ([1]; male, human, plasma, oral) was 10000 ng·h/mL.
Work on COCCc1ccc(OCC(O)CNC(C)C)cc1 (centres unmarked) [Metoprolol, metoprolol] yielded an AUC(0-inf) ([1]; male, human, plasma, oral) of 41.4 ng·h/mL.
Work on Cc1ncc2n1-c1ccc(Cl)cc1C(c1ccccc1F)=NC2 [Midazolam, midazolam] yielded an AUC(0-inf) ([1]; male, human, plasma, oral) of 19.7 ng·h/mL and a half-life ([1]; male, human, plasma, oral) of 2.44 h.
For COc1ccc2[nH]c([S+]([O-])Cc3ncc(C)c(OC)c3C)nc2c1 (centres unmarked) [Omeprazole, omeprazole], the AUC(0-inf) ([1]; male, human, plasma, oral) was 187 ng·h/mL.
Work on Cn1c(=O)[nH]c2ncn(C)c2c1=O [Paraxanthine, paraxanthine] yielded an AUC(0-inf) ([1]; male, human, plasma, oral) of 4680 ng·h/mL and an AUC(0-inf) (CYP1A2 [2]) of 4620 ng·h/mL.
With Cc1c(N(C)CS(=O)(=O)O)c(=O)n(-c2ccccc2)n1C [metamizole, Metamizole] the “effect on CYP2C19 activity” value (CYP2C19) was “moderately”, the “effect on CYP2C9 activity” value (CYP2C9) was “weakly induced” and the “effect on CYP1A2 activity” value (CYP1A2 [3]; [8]) was “weakly inhibited”. The “change in caffeine:paraxanthine MR” value (CYP1A2 [3]; metamizole 3 × 1 g per day for 7 days, P = 0.0024) was “significant increase”, the “lower sertraline plasma concentrations than patients without metamizole” value [4] was 67% and the “effect on CYP3A4 activity” value (CYP3A4) was “moderate induction”. The “increase in the bupropion hydroxylase activity” value (CYP2B6 [5]) was 2.1 fold, the “effect on CYP2D6 activity” value (CYP2D6; [8]) was “did not alter” and the “change in the MR of metoprolol” value (CYP2D6; metamizole 3 × 1 g per day for 7 days) was “no significant change”. The “effect on CYP2B6 activity” value (CYP2B6 [6]) was “moderate induction” and the “effect on cyclosporine blood concentrations” value [7] was “decreased”.
For CN(C)C(=N)N=C(N)N [metformin], the “effect on CYP2D6 mRNA” value (CYP2D6 mRNA) was “not significantly affected” and the “effect on CYP1A2 mRNA” value (CYP1A2 mRNA; differentiated HepaRG cells, 300 µM 4‐MAA, 2 mM metformin) was “suppressed”.
For CO[C@H]1/C=C/O[C@@]2(C)Oc3c(C)c(O)c4c(O)c(c(/C=N/N5CCN(C)CC5)c(O)c4c3C2=O)NC(=O)/C(C)=C\C=C\[C@H](C)[C@H](O)[C@@H](C)[C@@H](O)[C@@H](C)[C@H](OC(C)=O)[C@@H]1C [rifampicin], the “CYP2C19 mRNA induction in 5‐F cells” value (CYP2C19 mRNA) was “increased”, the “increase of CYP2C19 mRNA content” value (CYP2C19 mRNA; [9]) was 2.2 fold and the “CYP2B6 mRNA induction in 5‐F cells” value (CYP2B6 mRNA) was “not significant”. The “increase of CYP2B6 mRNA content” value (CYP2B6 mRNA; [9]) was 4.3 fold.

— PMC8247900 (Clinical Pharmacology and Therapeutics, 2021)
